Data as given in patent publication US20020137929A1, “1 - (3-heterocyclylphenyl) isothiourea, -isourea, -guanidine and -amidine herbicidal agents” (Intellectual Property Department, BASF Aktiengesellschaft, priority 1998, published 2002).

Tests used:
AMBEL (Ragweed, Common) = test: Postemergence herbicidal evaluation; type: in vivo, Ambrosia artemisifolia; details: postemergence
Procedure, shortened: (§1)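 First, seedlings were raised for around two weeks. Next, test material in 50/50 acetone/water containing 0.5% TWEEN 20 was sprayed through a nozzle at 40 psi, equivalent to about 0.0156–0.500 kg/ha. Finally, after 4–5 weeks in the greenhouse, plants were rated 0–9.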

CASOB (Sicklepod) = test: Postemergence herbicidal evaluation; type: in vivo, Cassia obtusifolia; details: postemergence
Procedure, shortened: as §1

GALAP (Galium) [1] = test: Postemergence herbicidal evaluation; type: in vivo, Galium aparine; details: postemergence
Procedure, shortened: as §1

[2] = test system: GLXMAW (Soybean, Williams); test: Postemergence herbicidal evaluation; type: in vivo, Glycine max, (L.) Merr. cv Williams; details: postemergence
Procedure, shortened: as §1

[3] = test system: TRZAWR (Wheat, Winter, cv Riband); test: Postemergence herbicidal evaluation; type: in vivo, Triticum aestivum; details: postemergence
Procedure, shortened: as §1

GALAP (Galium) [4] = test: Preemergence herbicidal evaluation; type: in vivo, Galium aparine; details: rated 4-5 weeks after treatment
Procedure, shortened: (§2)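 Herbicidal effect scored visually, 0-9, at 4 to 5 weeks against a control; compound applied preemergence by aqueous acetone spray to seeded soil at about 0.0156 to 0.500 kg/ha.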

SETVI (Foxtail, Green) = test: Preemergence herbicidal evaluation; type: in vivo, Setaria viridis; details: rated 4-5 weeks after treatment
Procedure, shortened: as §2

ORYSAT (Rice, Tebonnet) = test: Preemergence herbicidal evaluation; type: in vivo, Oryza sativa, (L.) Tebonnet; details: rated 4-5 weeks after treatment
Procedure, shortened: as §2

[5] = test system: ECHORC (Watergrass (Calif.)); test: Preemergence weed control under flooded paddy conditions; type: in vivo, Echinochloa oryzoides; details: rated 3-4 weeks after treatment
Procedure, shortened: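 Herbicidal effect is scored visually on a 0-9 scale against an untreated control, three to four weeks after compounds are pipetted into the flood water (1.5 to 3 cm deep) over seeds planted in silt loam at 0.5 cm depth. Rates: about 0.0313 to 0.500 kg/ha.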

CYPSE (Flatsedge) = test: as above; type: in vivo, Cyperus serotinus; details: rated 3-4 weeks after treatment
Procedure, shortened: (§3)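 Visual injury scored 0-9 against control three to four weeks post-treatment, greenhouse-grown. Application: acetone/water (50/50) solutions dosed directly into flood water (1.5-3 cm over silt loam, planted top 0.5 cm), roughly 0.0313 to 0.500 kg/ha active ingredient.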

MOOVA (Monochoria) = test: as above; type: in vivo, Monochoria vaginalis; details: rated 3-4 weeks after treatment
Procedure, shortened: as §3

[6] = test system: SAGPY (Arrowhead (Pygmaea)); test: as above; type: in vivo, Sagittaria pygmaea; details: rated 3-4 weeks after treatment
Procedure, shortened: as §3

[7] = test system: ECHORC (Watergrass (Calif.)); test: Postemergence weed control under flooded paddy conditions; type: in vivo, Echinochloa oryzoides; details: postemergence weeds, 3-4 weeks after treatment
Procedure, shortened: (§4)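 Herbicidal effect is judged by eye on a 0–9 scale versus control, 3–4 weeks after dosing. Dosing is into flood water kept 1.5–3 cm over the soil, at about 0.0313–0.500 kg/ha in aqueous/acetone 50/50 v/v, on 3–5 cm weeds and 1.5–2.5-leaf rice seedlings.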

[8] = test system: SAGPY (Arrowhead (Pygmaea)); test: as above; type: in vivo, Sagittaria pygmaea; details: postemergence weeds, 3-4 weeks after treatment
Procedure, shortened: as §4

CCOC(=O)CN1C(=O)CSC1=Nc1cc(-n2c(=O)cc(C(F)(F)F)n(C)c2=O)c(F)cc1Cl [Compound 8, Ethyl 2-{{2-chloro-5-[3,6-dihydro-3-methyl-2,6-dioxo-4-(trifluoromethyl)-1(2H)pyrimidinyl]-4-fluorophenyl}imino}-4-oxo-3-thiazolidineacetate]
AMBEL herbicidal rating (AMBEL (Ragweed, Common); rate 0.0157 kg/ha): 9.0
AMBEL herbicidal rating (AMBEL (Ragweed, Common); rate 0.0313 kg/ha): 7.8
AMBEL herbicidal rating (AMBEL (Ragweed, Common); rate 0.0625 kg/ha): 8.3
AMBEL herbicidal rating (AMBEL (Ragweed, Common); rate 0.1250 kg/ha): 8.6
CASOB herbicidal rating (CASOB (Sicklepod); rate 0.0157 kg/ha): 0.0
CASOB herbicidal rating (CASOB (Sicklepod); rate 0.0313 kg/ha): 1.8
CASOB herbicidal rating (CASOB (Sicklepod); rate 0.0625 kg/ha): 3.0
CASOB herbicidal rating (CASOB (Sicklepod); rate 0.1250 kg/ha): 3.0
GALAP herbicidal rating (GALAP (Galium) [1]; rate 0.0157 kg/ha): 3.0
GALAP herbicidal rating (GALAP (Galium) [1]; rate 0.0313 kg/ha): 4.5
GALAP herbicidal rating (GALAP (Galium) [1]; rate 0.0625 kg/ha): 6.3
GALAP herbicidal rating (GALAP (Galium) [1]; rate 0.1250 kg/ha): 6.8
GLXMAW herbicidal rating ([2]; rate 0.0157 kg/ha): 7.5
GLXMAW herbicidal rating ([2]; rate 0.0313 kg/ha): 7.6
GLXMAW herbicidal rating ([2]; rate 0.0625 kg/ha): 7.9
GLXMAW herbicidal rating ([2]; rate 0.1250 kg/ha): 8.4
TRZAWR herbicidal rating ([3]; rate 0.0157 kg/ha): 3.5
TRZAWR herbicidal rating ([3]; rate 0.0313 kg/ha): 5.1
TRZAWR herbicidal rating ([3]; rate 0.0625 kg/ha): 6.4
TRZAWR herbicidal rating ([3]; rate 0.1250 kg/ha): 6.4
GALAP preemergence herbicidal rating (GALAP (Galium) [4]; rate 0.0156 kg/ha): 0.0
GALAP preemergence herbicidal rating (GALAP (Galium) [4]; rate 0.0313 kg/ha): 1.3
GALAP preemergence herbicidal rating (GALAP (Galium) [4]; rate 0.0625 kg/ha): 5.5
GALAP preemergence herbicidal rating (GALAP (Galium) [4]; rate 0.1250 kg/ha): 7.5
GALAP preemergence herbicidal rating (GALAP (Galium) [4]; rate 0.2500 kg/ha): 9.0
GALAP preemergence herbicidal rating (GALAP (Galium) [4]; rate 0.5000 kg/ha): 9.0
SETVI preemergence herbicidal rating (SETVI (Foxtail, Green); rate 0.0156 kg/ha): 2.8
SETVI preemergence herbicidal rating (SETVI (Foxtail, Green); rate 0.0313 kg/ha): 6.1
SETVI preemergence herbicidal rating (SETVI (Foxtail, Green); rate 0.0625 kg/ha): 8.2
SETVI preemergence herbicidal rating (SETVI (Foxtail, Green); rate 0.1250 kg/ha): 9.0
SETVI preemergence herbicidal rating (SETVI (Foxtail, Green); rate 0.2500 kg/ha): 9.0
SETVI preemergence herbicidal rating (SETVI (Foxtail, Green); rate 0.5000 kg/ha): 9.0
ORYSAT preemergence herbicidal rating (ORYSAT (Rice, Tebonnet); rate 0.0156 kg/ha): 0.6
ORYSAT preemergence herbicidal rating (ORYSAT (Rice, Tebonnet); rate 0.0313 kg/ha): 0.8
ORYSAT preemergence herbicidal rating (ORYSAT (Rice, Tebonnet); rate 0.0625 kg/ha): 2.8
ORYSAT preemergence herbicidal rating (ORYSAT (Rice, Tebonnet); rate 0.1250 kg/ha): 5.4
ORYSAT preemergence herbicidal rating (ORYSAT (Rice, Tebonnet); rate 0.2500 kg/ha): 7.1
ORYSAT preemergence herbicidal rating (ORYSAT (Rice, Tebonnet); rate 0.5000 kg/ha): 8.5
Herbicidal rating ECHORC ([5]; 0.0313 kg/ha): 6.5
Herbicidal rating ECHORC ([5]; 0.0625 kg/ha): 6.5
Herbicidal rating ECHORC ([5]; 0.1250 kg/ha): 7.5
Herbicidal rating ECHORC ([5]; 0.2500 kg/ha): 8.5
Herbicidal rating CYPSE (CYPSE (Flatsedge); 0.0313 kg/ha): 0.0
Herbicidal rating CYPSE (CYPSE (Flatsedge); 0.0625 kg/ha): 0.0
Herbicidal rating CYPSE (CYPSE (Flatsedge); 0.1250 kg/ha): 0.0
Herbicidal rating CYPSE (CYPSE (Flatsedge); 0.2500 kg/ha): 0.0
Herbicidal rating MOOVA (MOOVA (Monochoria); 0.0313 kg/ha): 9.0
Herbicidal rating MOOVA (MOOVA (Monochoria); 0.0625 kg/ha): 9.0
Herbicidal rating MOOVA (MOOVA (Monochoria); 0.1250 kg/ha): 9.0
Herbicidal rating MOOVA (MOOVA (Monochoria); 0.2500 kg/ha): 9.0
Herbicidal rating SAGPY ([6]; 0.0313 kg/ha): 0.0
Herbicidal rating SAGPY ([6]; 0.0625 kg/ha): 0.0
Herbicidal rating SAGPY ([6]; 0.1250 kg/ha): 0.0
Herbicidal rating SAGPY ([6]; 0.2500 kg/ha): 0.0
Herbicidal rating ECHORC ([7]; rate 0.0313 kg/ha): 6.5
Herbicidal rating ECHORC ([7]; rate 0.0625 kg/ha): 6.5
Herbicidal rating ECHORC ([7]; rate 0.1250 kg/ha): 7.5
Herbicidal rating ECHORC ([7]; rate 0.2500 kg/ha): 8.5
Herbicidal rating SAGPY ([8]; rate 0.0313 kg/ha): 0.0
Herbicidal rating SAGPY ([8]; rate 0.0625 kg/ha): 0.0
Herbicidal rating SAGPY ([8]; rate 0.1250 kg/ha): 0.0
Herbicidal rating SAGPY ([8]; rate 0.2500 kg/ha): 0.0
